Experimental data reported in US20140088069A1, “NOVEL ANTIBACTERIAL COMBINATION THERAPY” (priority 2011, published 2014).

How the values were obtained:
Format in all cases: cell-based, Staphylococcus aureus
[1] = system: S. aureus (Newman strain); test: Checkerboard (FIC) analysis against S. aureus Newman; settings: antibiotic in combination with ticlopidine; S. aureus (Newman strain)
CA-MRSA USA300 = test: Checkerboard (FIC) analysis against CA-MRSA USA300; settings: for drug-drug interaction with cefuroxime (checkerboard secondary screen): in combination with cefuroxime
Procedure: Here a matrix of drug concentrations were tested in combinations at the concentrations shown (μg/mL). Greyscale indicates growth—darker is more growth, lighter is less growth. FIC index is a measure of synergy and is calculated as follows: FIC index=FIC (cefuroxime)+FIC (drug compound).
The combination of ticlopidine and cefuroxime was further tested as above against a variety of S. aureus strains as shown in Table 1 below.
FIC index=FIC (β-lactam)+FTC (ticlopidine). […]

MRSA = test: Analogues in combination with cefuroxime against MRSA (FIC index)
Procedure: A series of analogues were synthesized (as shown in Table 5) in which the thienopyridine ring was removed.
These were tested in combination with cefuroxime against MRSA and results are shown below (Table 6).

[2] = antibiotic in combination with ticlopidine, CA-MRSA USA 300, FIC (β-lactam)+FIC (ticlopidine)
[3] = compound in combination with cefuroxime, MRSA (Table 5)
[4] = novel analogue in combination with cefuroxime, MRSA (Table 6)

Row | Compound | FIC index [1] | FIC index (CA-MRSA USA300; [2]) | also measured
1 | CO[C@@]1(NC(=O)CSCC#N)C(=O)N2C(C(=O)O)=C(CSc3nnnn3C)CS[C@@H]21 [Cefmetazole] | ≦0.75 |  | 
2 | Cc1onc(-c2ccccc2)c1C(=O)N[C@@H]1C(=O)N2[C@@H]1SC(C)(C)[C@@H]2C(=O)O [Oxacillin] | ≦0.63 | ≦0.5 | 
3 | Cc1onc(-c2ccccc2Cl)c1C(=O)N[C@@H]1C(=O)N2[C@@H]1SC(C)(C)[C@@H]2C(=O)O [Cloxacillin] |  | ≦0.5 | 
4 | CC(C)(O/N=C(\C(=O)N[C@@H]1C(=O)N2C(C(=O)[O-])=C(C[n+]3ccccc3)CS[C@H]12)c1csc(N)n1)C(=O)O [Ceftazidime] | ≦1 | ≦2 | 
5 | NC[C@H]1O[C@H](O[C@H]2[C@H](O)[C@@H](O[C@H]3O[C@H](CO)[C@@H](O)[C@H](N)[C@H]3O)[C@H](N)C[C@@H]2N)[C@H](N)C[C@@H]1O [Tobramycin] | ≦2 |  | 
6 | N[C@@H]1CONC1=O [D-cycloserine] | ≦2 |  | 
7 | Clc1ccccc1C[n+]1ccc2ccccc2c1 [Compound 8, 2-(2-Chloro-benzyl)-isoquinolinium] |  |  | FIC index (MRSA; [3]): ≦2
8 | CC(=O)Oc1cc2c(s1)CCN(C(C(=O)C1CC1)c1ccccc1F)C2 (racemic) [Prasugrel, (RS)-5-[2-cyclopropyl-1-(2-fluorophenyl)-2-oxoethyl]-4,5,6,7-tetrahydrothieno[3,2-c]pyridin-2-yl acetate] |  |  | MIC (CA-MRSA USA300; Staphylococcus aureus, read-out: MIC thienopyridine): > 128 µg/mL; FIC thienopyridine (CA-MRSA USA300; in the presence of cefuroxime, CA-MRSA USA300 (Table 4)): 0.25; FIC index (CA-MRSA USA300; thienopyridine in combination with cefuroxime, CA-MRSA USA300 (Table 4)): ≦0.50; FIC index (CA-MRSA USA300; thienopyridine in combination with cefuroxime, CA-MRSA USA300 (Table 4), listed as prasugrel): ≤ 0.50
9 | Oc1ccc2c(c1)CN(Cc1ccccc1Cl)CC2 [Compound 2-novel, 2-(2-Chloro-benzyl)-1,2,3,4-tetrahydro-isoquinolin-7-ol] |  |  | FIC index (MRSA; [4]): ≦2
10 | Clc1ccccc1CN1CCc2ccccc2C1 [Compound 3, 2-(2-Chloro-benzyl)-1,2,3,4-tetrahydro-isoquinoline] |  |  | FIC index (MRSA; [3]): ≦0.125
11 | Clc1ccc(CN2CCc3ccccc3C2)cc1 [Compound 5, 2-(4-Chloro-benzyl)-1,2,3,4-tetrahydro-isoquinoline] |  |  | FIC index (MRSA; [3]): ≦2
12 | CC(=O)OCC1=C(C(=O)O)N2C(=O)[C@@H](NC(=O)CCC[C@@H](N)C(=O)O)[C@H]2SC1 [Cephalosporin C] | ≦0.75 |  | 
13 | Fc1ccccc1CN1CCc2ccccc2C1 [Compound 15, 2-(2-Fluoro-benzyl)-1,2,3,4-tetrahydro-isoquinoline] |  |  | FIC index (MRSA; [3]): ≦0.187
14 | Cc1ccccc1CN1CCc2ccccc2C1 [Compound 14, 2-(2-Methyl-benzyl)-1,2,3,4-tetrahydro-isoquinoline] |  |  | FIC index (MRSA; [3]): ≦0.125
15 | COc1cc(Cc2cnc(N)nc2N)cc(OC)c1OC [Trimethoprim] | ≦2 |  | 
16 | CC1(C)S[C@@H]2[C@H](NC(=O)Cc3ccccc3)C(=O)N2[C@H]1C(=O)O [Penicillin G] |  | ≦0.5 | 
17 | COC(=O)C(c1ccccc1Cl)N1CCc2ccccc2C1 (stereo not shown) [Compound 18, (2-Chloro-phenyl)-(3,4-dihydro-1H-isoquinolin-2-yl)-acetic acid methyl ester] |  |  | FIC index (MRSA; [3]): ≦0.187
18 | c1ccc(CN2CCc3ccccc3C2)cc1 [Compound 6, 2-Benzyl-1,2,3,4-tetrahydro-isoquinoline] |  |  | FIC index (MRSA; [3]): ≦0.625
19 | COC(=O)C(c1ccccc1C(F)(F)F)N1CCc2ccccc2C1 (stereo not shown) [Compound 21] |  |  | FIC index (MRSA; [3]): ≦0.125
20 | NC(=O)c1cc[n+](CC2=C(C(=O)O)N3C(=O)[C@@H](NC(=O)[C@@H](c4ccccc4)S(=O)(=O)[O-])[C@H]3SC2)cc1 [Cefsulodin] | ≦1 | ≦2 | 
21 | COc1cccc(OC)c1C(=O)N[C@@H]1C(=O)N2[C@@H]1SC(C)(C)[C@@H]2C(=O)O [Methicillin] | ≦1 | ≦0.63 | 
22 | O=C(O)c1cn(C2CC2)c2cc(N3CCNCC3)c(F)cc2c1=O [Ciprofloxacin] | ≦2 |  | 
23 | FC(F)(F)c1ccccc1CN1CCc2ccccc2C1 [Compound 17, 2-(2-Trifluoromethyl-benzyl)-1,2,3,4-tetrahydro-isoquinoline] |  |  | FIC index (MRSA; [3]): ≦0.094
24 | C[C@H]1COc2c(N3CCN(C)CC3)c(F)cc3c(=O)c(C(=O)O)cn1c23 [Levofloxacin] | ≦2 |  | 
25 | CC1=C(C(=O)O)N2C(=O)[C@@H](NC(=O)[C@H](N)c3ccc(O)cc3)[C@H]2SC1 [Cefadroxil] |  | ≦2 | 
26 | Clc1ccccc1CN1CCCC1 [Compound 11, 1-(2-Chloro-benzyl)-pyrrolidine] |  |  | FIC index (MRSA; [3]): ≦2
27 | Cn1nnnc1SCC1=C(C(=O)O)N2C(=O)[C@@H](NC(=O)[C@H](O)c3ccccc3)[C@H]2SC1 [Cefamandole] | ≦0.75 | ≦0.63 | 

Row | Compound | FIC index [1] | FIC index (CA-MRSA USA300; [2]) | also measured
28 | CC1=C(C(=O)O)N2C(=O)[C@@H](NC(=O)[C@H](N)c3ccccc3)[C@H]2SC1 [Cephalexin] | ≦1 | ≦0.75 | 
29 | CCN1CCN(Cc2ccccc2Cl)CC1 [Compound 10, 1-(2-Chloro-benzyl)-4-ethyl-piperazine] |  |  | FIC index (MRSA; [3]): ≦2
30 | CO[C@@]1(NC(=O)Cc2cccs2)C(=O)N2C(C(=O)O)=C(COC(N)=O)CS[C@@H]21 [Cefoxitin] | ≦0.75 | ≦0.5 | 
31 | CC1=C(C(=O)O)N2C(=O)[C@@H](NC(=O)[C@H](N)C3=CCC=CC3)[C@H]2SC1 [Cephradine] |  | ≦2 | 
32 | NC(=O)C(c1ccccc1C(F)(F)F)N1CCc2ccccc2C1 (stereo not shown) [Compound 22] |  |  | FIC index (MRSA; [3]): ≦1
33 | CCCCCCCCCC(=O)N[C@@H](Cc1c[nH]c2ccccc12)C(=O)N[C@H](CC(N)=O)C(=O)N[C@@H](CC(=O)O)C(=O)N[C@@H]1C(=O)NCC(=O)N[C@@H](CCCN)C(=O)N[C@@H](CC(=O)O)C(=O)N[C@H](C)C(=O)N[C@@H](CC(=O)O)C(=O)NCC(=O)N[C@H](CO)C(=O)N[C@@H]([C@H](C)CC(=O)O)C(=O)N[C@@H](CC(=O)c2ccccc2N)C(=O)O[C@@H]1C [Daptomycin] | ≦2 |  | 
34 | Clc1ccc2c(c1)CCN(Cc1ccccc1Cl)C2 [Compound 1-novel, 6-Chloro-2-(2-chloro-benzyl)-1,2,3,4-tetrahydro-isoquinoline] |  |  | FIC index (MRSA; [4]): ≦2
35 | CO/N=C(\C(=O)N[C@@H]1C(=O)N2C(C(=O)O)=C(COC(C)=O)CS[C@H]12)c1csc(N)n1 [Cefotaxime] |  | ≦0.5 | 
36 | Clc1ccccc1CN1CCCc2ccccc21 [Compound 9, 1-(2-Chloro-benzyl)-1,2,3,4-tetrahydro-quinoline] |  |  | FIC index (MRSA; [3]): ≦0.187
37 | CN[C@H](CC(C)C)C(=O)N[C@H]1C(=O)N[C@@H](CC(N)=O)C(=O)N[C@H]2C(=O)N[C@H]3C(=O)N[C@H](C(=O)N[C@H](C(=O)O)c4cc(O)cc(O)c4-c4cc3ccc4O)[C@H](O)c3ccc(c(Cl)c3)Oc3cc2cc(c3O[C@@H]2O[C@H](CO)[C@@H](O)[C@H](O)[C@H]2O[C@H]2C[C@](C)(N)[C@H](O)[C@H](C)O2)Oc2ccc(cc2Cl)[C@H]1O [Vancomycin] | ≦2 |  | 
38 | Clc1ccccc1CN1CCC2CCCCC2C1 (stereo not shown) [Compound 13, 2-(2-Chloro-benzyl)-decahydro-isoquinoline] |  |  | FIC index (MRSA; [3]): ≦2
39 | CO/N=C(\C(=O)N[C@@H]1C(=O)N2C(C(=O)O)=CCS[C@H]12)c1csc(N)n1 [Ceftizoxime] |  | ≦0.5 | 
40 | CC1(C)S[C@@H]2[C@H](NC(=O)[C@H](N)c3ccccc3)C(=O)N2[C@H]1C(=O)O [Ampicillin] | ≦1 | ≦0.5 | 
41 | C[C@@H]1O[C@@H]1P(=O)(O)O [Fosfomycin] | ≦0.5 |  | 
42 | CN1[C@@H]2CC[C@H]1C[C@@H](OC(c1ccccc1)c1ccccc1)C2 [Benztropine] |  |  | drug-drug interaction with cefuroxime (checkerboard secondary screen) (CA-MRSA USA300): synergistic interactions
43 | CN(C)CCC(c1ccc(Cl)cc1)c1ccccn1 (stereo not shown) [chlorpheniramine] |  |  | drug-drug interaction with cefuroxime (checkerboard secondary screen) (CA-MRSA USA300): synergistic interactions
44 | CO/N=C(\C(=O)N[C@@H]1C(=O)N2C(C(=O)O)=C(COC(C)=O)CS[C@H]12)c1csc(N)n1 [Ceftoxamine] | ≦1 |  | 
45 | CCN1CCN(C(=O)N[C@@H](C(=O)N[C@@H]2C(=O)N3[C@@H]2SC(C)(C)[C@@H]3C(=O)O)c2ccccc2)C(=O)C1=O [Piperacillin] | ≦0.63 | ≦0.5 | 
46 | N[C@@H](C(=O)N[C@@H]1C(=O)N2C(C(=O)O)=C(Cl)CS[C@H]12)c1ccccc1 [Cefaclor] | ≦1 | ≦0.5 | 
47 | CC[C@H]1OC(=O)[C@H](C)[C@@H](O[C@H]2C[C@@](C)(OC)[C@@H](O)[C@H](C)O2)[C@H](C)[C@@H](O[C@@H]2O[C@H](C)C[C@H](N(C)C)[C@H]2O)[C@](C)(O)C[C@@H](C)C(=O)[C@H](C)[C@@H](O)[C@]1(C)O [Erythromycin] | ≦2 |  | 
48 | Polymyxin | ≦0.5 |  | 
49 | CC(=O)OCC1=C(C(=O)O)N2C(=O)[C@@H](NC(=O)Cc3cccs3)[C@H]2SC1 [Cephalothin] |  | ≦0.5 | 
50 | CCOc1ccc2ccccc2c1C(=O)N[C@@H]1C(=O)N2[C@@H]1SC(C)(C)[C@@H]2C(=O)O [Nafcillin] | ≦1 | ≦0.5 | 
51 | CC[C@H]1OC(=O)[C@H](C)[C@@H](O[C@H]2C[C@@](C)(OC)[C@@H](O)[C@H](C)O2)[C@H](C)[C@@H](O[C@@H]2O[C@H](C)C[C@H](N(C)C)[C@H]2O)[C@](C)(OC)C[C@@H](C)C(=O)[C@H](C)[C@@H](O)[C@]1(C)O [Clarithromycin] | ≦2 |  | 
52 | C[C@@H](O)[C@H]1C(=O)N2C(C(=O)O)=C(S[C@@H]3CN[C@H](C(=O)N(C)C)C3)[C@H](C)[C@H]12 [Meropenem] |  | ≦0.75 | 
53 | Tunicamycin | ≦0.75 |  | 
